Values joined by “and” are separate entries in the source; they are usually repeats but may differ in a detail not shown here. Identical values can stand only once.
Experiments:
[1] = Compound stability test in plasma (mouse); format: in vitro ADME
Procedure: (§1) In this study, mouse, SD rat, Beagle, cynomolgus monkey and human plasma were used as materials to investigate the stability of the tested compounds in the plasma of the above five species. Propantheline, Enalapril, Bisacodyl and Procaine were used as control compounds.
(§2) The experimental conditions for the test compounds were as follows: • test concentration: 2 μM (DMSO ≤0.5%); • incubation times: 0, 10, 30, 60 and 120 minutes; • frozen plasma (from multiple species) was used in the test system; • incubation conditions: 37° C.
(§3) The mixed frozen plasma was thawed in a 37° C. water bath prior to the experiment. Plasma was centrifuged at 4000 rpm for 5 minutes and cleared if there was a clot. The pH will be adjusted to 7.4±0.1 if required.
(§4) The intermediate solution of 1 mM compound and positive control was prepared by diluting 10 mM stock solution with 90 μL of dimethyl sulfoxide. 100 μM solution was prepared by diluting 20 μL of intermediate solution (1 mM) with 180 μL of 45% methanol/water.
(§5) 2 μL of 100 μM solution was added to 98 μL of blank plasma to achieve a final concentration of 2 μM (in duplicate) of the sample, and the sample was incubated in a 37° C. water bath. At each time point (0, 10, 30, 60 and 120 min), 400 μL of termination solution (200 ng/mL toluenesulfonylurea and 200 ng/mL labetalol, 50% ACN/MeOH) was added to precipitate the proteins and mixed thoroughly. […]

[2] = tested on: HuPrime lung cancer LU0387 subcutaneous xenograft tumor; experiment: HuPrime lung cancer LU0387 subcutaneous xenograft BALB/c nude mouse model; format: in vivo, BALB/c Nude mice
Procedure: The antitumor effects of the test drug in HuPrime® lung cancer LU0387 subcutaneous xenograft BALB/C nude mouse were evaluated.
BALB/c Nude mice, female, 7-8 weeks, HuPrime® lung cancer xenograft model LU0387 tumor-bearing mouse tumor tissue.
BALB/c nude mice were subcutaneously inoculated with HuPrime® model LU0387 tumor blocks to establish a human lung cancer subcutaneous transplantation tumor model. The test was divided into a solvent control group and a test drug group. The drug was administered by gavage, once daily for 21 days. Efficacy was evaluated based on relative tumor inhibition rate (TGI), and the safety was evaluated based on animal weight change and mortality.
Tumor diameters were measured with vernier calipers twice a week. The calculation formula of tumor volume was: V=0.5a×b^2, wherein a and b represented the long and short diameters of the tumor, respectively.
The antitumor efficacy of the compounds was evaluated by TGI (%) or relative tumor proliferation rate T/C (%).
Relative tumor proliferation rate T/C (%)=TRTV/CRTV×100% (TRTV: mean RTV in the treatment group; CRTV: mean RTV in the solvent control group).
The relative tumor volume (RTV) was calculated according to the results of tumor measurement. The calculation formula was RTV=Vt/V0, wherein V0 was the tumor volume measured at the time of group administration (i.e., D0), and Vt was the tumor volume corresponding to a certain measurement. TRTV and CRTV were taken on the same day.
TGI (%), reflecting the tumor growth inhibition rate. TGI (%)=[(1−(average tumor volume at the end of administration of a treatment group−average tumor volume at the beginning of administration of this treatment group))/(average tumor volume at the end of treatment in the solvent control group−average tumor volume at the beginning of treatment of the solvent control group)]×100%.

[3] = target: Ba/F3 EGFR-D770_N771insSVD (Homo sapiens, UniProt P00533, DUP768-770, cells depend on it); experiment: Anti-proliferation against Ba/F3 exon 20 insertion mutant cells (SVD); format: cell-based, mouse; conditions: CTG, 72 hours, read-out: Mutant cells IC50 (anti-proliferation)
Source text: (§6) RPMI1640 medium was purchased from Hyclone, FBS fetal bovine serum was purchased from GBICO, and trypsin-EDTA were both purchased from Giboco. DPBS was purchased from Corning, penicillin/streptomycin solution was purchased from Hyclone, and Cell-Titer Glo reagent was purchased from Promega (Cat. No. G7572). Ba/F3 EGFR-D770_N771insSVD, Ba/F3 EGFR-H773_V774insNPH, Ba/F3 EGFR-V769_D770insASV, BaF3 ERBB2 A775_G776 ins YVMA, the cell lines were constructed by Beijing Kang Yuan Bochuang Biotechnology Co., Ltd. Plate reading instrument: Envision (PerkinElmer).
Cells in logarithmic growth phase were harvested and cell counts were performed using a […]. Cell viability was detected by the Taipan Blue rejection assay. The cell concentration was adjusted; the cell suspension was added to a 96-well plate separately. Cells in 96-well plates were incubated overnight at 37° C., 5% CO2, and 95% humidity. To prepare the drug solution, 10 μL of drug solution was added to each well of the 96-well plate inoculated with cells, and three replicate wells were set up for each drug concentration. The cells in the 96-well plates added with drugs were placed at 37° C., 5% CO2, 95% humidity and continued to incubate for 72 hours, after which CTG analysis was performed and the cells were vibrated on an orbital shaker to lyse the cells. The cell plate was placed at room temperature to stabilize the cold light signal, and the cold light values were read. The data were analyzed using GraphPad Prism 7.0 software, and a nonlinear S-curve regression was used to fit the data to derive the dose-effect curve from which the IC50 values were calculated.
The IC50 of anti-proliferation activity against Ba/F3 Exon20 insertion mutant cells of the compounds of the present disclosure is shown in Table 5.
Ba/F3 exon 20 insertion mutant cells are cell lines with SVD, NPH, ASV, and YVMA insertion mutations artificially constructed using mouse B cells, and it can be seen from Table 5 that the compounds of the present disclosure have better cellular anti-proliferation activity against the […] exon 20 insertion mutations such as SVD, NPH, ASV, and YVMA, and also show better anti-proliferation activity against common exon 20 insertion mutations such as SVD mutation.

[4] = Compound stability test in plasma (monkey); format: in vitro ADME, cynomolgus monkey
Procedure: as §1, §2, §3, §4, §5

[5] = target: BaF3 ERBB2 A775_G776 ins YVMA (Homo sapiens, UniProt P04626, DUP772-775, cells depend on it); experiment: Anti-proliferation against Ba/F3 exon 20 insertion mutant cells (ERBB2 YVMA); format: cell-based, mouse; conditions: CTG, 72 hours, read-out: Mutant cells IC50 (anti-proliferation)
Source text: as §6
Cells in logarithmic growth phase were harvested and cell counts were performed using a […]. Cell viability was detected by the Taipan Blue rejection assay. The cell concentration was adjusted; the cell suspension was added to a 96-well plate separately. Cells in 96-well plates were incubated overnight at 37° C., 5% CO2, and 95% humidity. […] The cell plate was placed at room temperature to stabilize the cold light signal, and the cold light values were read. The data were analyzed using GraphPad Prism 7.0 software, and a nonlinear S-curve regression was used to fit the data to derive the dose-effect curve from which the IC50 values were calculated. […]

[6] = pH 7.4, 37° C., read-out: In vitro plasma half-life T1/2

Sequence of Ba/F3 EGFR-D770_N771insSVD (P00533 with tags, fused parts or gaps DUP768-770): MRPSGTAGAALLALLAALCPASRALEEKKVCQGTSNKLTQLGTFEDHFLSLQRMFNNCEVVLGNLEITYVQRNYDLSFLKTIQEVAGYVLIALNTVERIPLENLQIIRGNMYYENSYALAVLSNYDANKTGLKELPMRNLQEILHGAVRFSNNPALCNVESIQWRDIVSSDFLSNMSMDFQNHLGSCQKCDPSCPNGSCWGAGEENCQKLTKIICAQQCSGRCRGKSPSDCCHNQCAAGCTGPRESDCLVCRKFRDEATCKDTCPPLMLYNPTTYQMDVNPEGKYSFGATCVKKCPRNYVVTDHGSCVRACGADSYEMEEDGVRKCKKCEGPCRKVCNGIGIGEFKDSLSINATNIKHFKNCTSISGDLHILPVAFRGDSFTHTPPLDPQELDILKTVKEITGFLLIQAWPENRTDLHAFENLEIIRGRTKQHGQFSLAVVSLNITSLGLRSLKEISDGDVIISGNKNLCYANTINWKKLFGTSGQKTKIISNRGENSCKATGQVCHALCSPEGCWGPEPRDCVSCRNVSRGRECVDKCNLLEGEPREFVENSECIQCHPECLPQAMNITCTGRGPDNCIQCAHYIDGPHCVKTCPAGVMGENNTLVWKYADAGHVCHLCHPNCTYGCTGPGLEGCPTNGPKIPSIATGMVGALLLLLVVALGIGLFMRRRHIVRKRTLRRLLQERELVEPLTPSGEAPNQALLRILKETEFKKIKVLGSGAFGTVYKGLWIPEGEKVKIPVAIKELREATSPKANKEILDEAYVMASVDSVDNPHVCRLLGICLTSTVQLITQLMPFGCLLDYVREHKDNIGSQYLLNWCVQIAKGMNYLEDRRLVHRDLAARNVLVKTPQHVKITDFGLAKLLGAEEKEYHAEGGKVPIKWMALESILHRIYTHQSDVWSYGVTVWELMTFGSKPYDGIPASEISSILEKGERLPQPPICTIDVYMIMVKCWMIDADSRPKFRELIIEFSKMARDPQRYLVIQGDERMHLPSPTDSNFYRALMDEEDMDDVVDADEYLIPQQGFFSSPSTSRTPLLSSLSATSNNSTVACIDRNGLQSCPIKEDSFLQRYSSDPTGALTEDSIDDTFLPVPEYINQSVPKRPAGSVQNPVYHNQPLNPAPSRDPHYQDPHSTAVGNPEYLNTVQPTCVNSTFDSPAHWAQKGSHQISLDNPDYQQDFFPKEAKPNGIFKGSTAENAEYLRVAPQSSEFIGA
Sequence of BaF3 ERBB2 A775_G776 ins YVMA (P04626 with tags, fused parts or gaps DUP772-775): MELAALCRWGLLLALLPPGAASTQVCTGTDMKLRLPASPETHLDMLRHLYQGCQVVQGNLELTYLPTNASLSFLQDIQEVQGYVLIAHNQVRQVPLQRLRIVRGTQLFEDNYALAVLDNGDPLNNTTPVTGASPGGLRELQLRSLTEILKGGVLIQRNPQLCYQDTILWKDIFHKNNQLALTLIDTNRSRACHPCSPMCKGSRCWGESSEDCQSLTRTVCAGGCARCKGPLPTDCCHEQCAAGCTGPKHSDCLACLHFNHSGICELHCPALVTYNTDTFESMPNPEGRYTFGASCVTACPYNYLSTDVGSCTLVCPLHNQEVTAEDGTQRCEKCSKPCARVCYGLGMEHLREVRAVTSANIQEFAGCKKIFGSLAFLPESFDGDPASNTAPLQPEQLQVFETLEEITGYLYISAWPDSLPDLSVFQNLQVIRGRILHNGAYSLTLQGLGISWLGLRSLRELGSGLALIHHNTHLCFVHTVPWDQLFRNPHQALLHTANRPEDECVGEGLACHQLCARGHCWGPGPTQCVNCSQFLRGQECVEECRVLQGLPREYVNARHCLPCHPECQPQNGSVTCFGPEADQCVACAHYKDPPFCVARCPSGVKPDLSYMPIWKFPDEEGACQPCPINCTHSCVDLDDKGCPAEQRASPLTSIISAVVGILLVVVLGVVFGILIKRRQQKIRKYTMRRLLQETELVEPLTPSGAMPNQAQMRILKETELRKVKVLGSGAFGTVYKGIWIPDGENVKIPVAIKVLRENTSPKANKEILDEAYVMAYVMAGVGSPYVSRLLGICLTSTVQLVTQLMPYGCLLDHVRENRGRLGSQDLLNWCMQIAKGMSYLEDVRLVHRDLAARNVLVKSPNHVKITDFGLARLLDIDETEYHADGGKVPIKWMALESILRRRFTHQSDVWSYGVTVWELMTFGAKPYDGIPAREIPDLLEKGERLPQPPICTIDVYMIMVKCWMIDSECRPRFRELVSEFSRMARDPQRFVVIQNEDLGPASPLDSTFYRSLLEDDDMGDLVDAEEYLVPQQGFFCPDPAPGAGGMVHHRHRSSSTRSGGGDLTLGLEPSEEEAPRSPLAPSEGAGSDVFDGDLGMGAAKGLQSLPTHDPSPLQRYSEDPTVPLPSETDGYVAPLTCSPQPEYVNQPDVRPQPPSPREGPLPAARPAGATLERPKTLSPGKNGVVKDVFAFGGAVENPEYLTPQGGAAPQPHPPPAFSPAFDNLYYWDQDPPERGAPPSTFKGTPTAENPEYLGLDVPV

Q: For `C=CC(=O)Nc1cc(Nc2ncc(C(=O)OC(C)C)c(-c3cn(OC)c4ccccc34)n2)c(OC)cc1N(C)CCN(C)C.CS(=O)(=O)O` [Compound 1], which “In vitro plasma stability (Residual percentage)” value ([1]; 120 minutes, 2 μM, 37° C.) is on record?
A: 45%

Q: What about the half-life at 2 µM [1, 6] of the same compound?
A: 1.81 h

Q: What about the “Tumor volume (Day 0)” value ([2]; Day 0, mean ± standard error, n = 6) of the same compound?
A: 122.13 ± 3.12 mm^3

Q: What about the RTV ([2]; Day 20, gavage once daily) of the same compound?
A: 0.14 ± 0.08

Q: And the T/C ([2]; Day 20, gavage once daily)?
A: 2%

Q: And the TGI ([2]; Day 20, gavage once daily)?
A: 114%

Q: What about the “Tumor volume (Day 20)” value ([2]; Day 20, gavage once daily) of the same compound?
A: 16.97 ± 10.54 mm^3

Q: What about the GI50 [3] of the same compound?
A: 0.027 µM and 0.024 µM

Q: And the “In vitro plasma stability (Residual percentage)” value ([4]; 120 minutes, 2 μM, 37° C.)?
A: 93.7%

Q: And the half-life at 2 µM [4, 6]?
A: > 4.82 h

Q: What about the GI50 [5] of the same compound?
A: 0.037 µM
